Measured values taken from patent US4248879A, “Benzopyranotriazoles” (Beecham Group Limited, priority 1978, dated 1981).

Experiments:
rat PCA = assay: Passive Cutaneous Anaphylaxis (PCA) in rats; assay type: in vivo, Male Wistar rats; conditions: S.C.
Experimental: Serum containing heat-labile homocytotropic antibody was raised in rats to crystallized ovalbumin XOA by the method of Mota (I. Mota, Immunology, 7, 681, (1964)) using Bordettela pertussis vaccine as adjuvant.
Passive cutaneous anaphylaxis (PCA) was carried out by a method based on that of Ovary and Bier, (A. Ovary and O. G. Bier, Proc. Soc. Exp. Bio. Med 81, 584, (1952)) as modified by Goose and Blair. (Immunology 16, 749 (1969)).
Male Wistar rats of 250-300 g were give 0.1 ml of each of six twofold serial dilutions of pooled antiserum in 0.9% saline injected intradermally into separate sites in their shaved backs. Later (72 hours) the animals were challenged by intravenous injection of 0.3 ml of a 1% solution of ovalbumin in an isotonic solution of saline buffered with 0.05 M, pH 7.2, Sorenson Buffer (PBS), mixed with 0.2 ml of a 5% solution of Pontamine Sky Blue (6BX C.I. 24410, Raymond A. Lamb, London) in isotonic saline. The rats were killed after 20 minutes and the diameter of the blue wheals at the antibody injection sites was measured on the outer surface of the skin. The starting dilution of the serum was adjusted so that there was no response, after challenge, at the injection site of the highest dilution and a maximum response at the lowest dilutions. Typically six twofold serial dilutions of the serum from 1/4 to 1/128 were used.
Compounds were tested for their ability to reduce the diameter of the wheals at those intradermal sites which in control animals gave less than maximum response. Each dose of the compound was administered to six rats at a measured time prior to intravenous challenge with ovalbumin. Control groups of six rats were given the same volume (0.2 ml: 100 g^-1) of carrier fluid at the same time prior to the challenge.
The results were calculated as follows: % inhibition of PCA=100 (1-a/b) where a=the sum of the diameters of the wheals produced in the test animal at the sites of antibody dilutions as used in control groups and b=the mean sum of the diameters of the wheals produced in the control group of animals at those antibody sites where at least five out of six of the animals gave less than maximum response. A typical variation in the control group of animals was SEM±6%.

LD50 (toxicity) in mice = conditions: mouse, in vivo
Experimental: The LD50 of the compound of Example 6 (d) is between 20 to 80 mg/kg i.v. and between 125 to 500 mg/kg per os, in mice.

[1] = PBS with NaHCO3, 10 mins before antigen challenge, 10 mg/kg
[2] = PBS with NaHCO3, 30 mins before antigen challenge, 10 mg/kg
[3] = PBS with NaHCO3, 10 mins before antigen challenge, 20 mg/kg
[4] = PBS with NaHCO3, 30 mins before antigen challenge, 20 mg/kg
[5] = PBS with NaHCO3, 10 mins before antigen challenge, 5 mg/kg
[6] = PBS with NaHCO3, 30 mins before antigen challenge, 5 mg/kg

In the case of O=c1c2ccccc2oc2nn[nH]c12 [Example 1, 9-Oxo-1H,9H-benzopyrano[2,3-d]-v-triazole], the “% Inhibitions of rat PCA” value (rat PCA; [1]) is reported as 83% and the “% Inhibitions of rat PCA” value (rat PCA; [2]) is reported as 29%.

With Cc1ccc2oc3nn[nH]c3c(=O)c2c1 [Example 3, 7-Methyl-9-oxo-1H,9H-benzopyrano[2,3]-v-triazole] the “% Inhibitions of rat PCA” value (rat PCA; [1]) was 78% and the “% Inhibitions of rat PCA” value (rat PCA; [2]) was 41%.

With COc1ccc2oc3nn[nH]c3c(=O)c2c1 [Example 4, 7-Methoxy-9-oxo-1H,9H-benzopyrano[2,3-d]-v-triazole] the “% Inhibitions of rat PCA” value (rat PCA; [3]) was 66% and the “% Inhibitions of rat PCA” value (rat PCA; [4]) was 35%.

With Cc1ccc2c(=O)c3[nH]nnc3oc2c1C [Example 5, 5,6-Dimethyl-9-oxo-1H,9H-benzopyrano[2,3-d]-v-triazole] the “% Inhibitions of rat PCA” value (rat PCA; [3]) was 64% and the “% Inhibitions of rat PCA” value (rat PCA; [4]) was 14%.

For Cc1cc2oc3nn[nH]c3c(=O)c2cc1C [Example 6d], the LD50 (LD50 (toxicity) in mice; iv) was 20 to 80 mg/kg, the LD50 (LD50 (toxicity) in mice; po, per os) was 125 to 500 mg/kg and the “% Inhibitions of rat PCA” value (rat PCA; [5]) was 72%. The “% Inhibitions of rat PCA” value (rat PCA; [6]) was 22%.

In the case of Cc1ccc2oc3nn[nH]c3c(=O)c2c1C [Example 6e, 7,8-dimethyl-1H,9H-benzopyrano[2,3-d]-v-triazole], the “% Inhibitions of rat PCA” value (rat PCA; [5]) is reported as 86% and the “% Inhibitions of rat PCA” value (rat PCA; [6]) is reported as 45%.

In the case of Cc1cc(C)c2c(=O)c3[nH]nnc3oc2c1C [Example 7, 9-oxo-5,6,8-Trimethyl-1H,9H-benzopyrano[2,3-d]-v-triazole], the “% Inhibitions of rat PCA” value (rat PCA; [1]) is reported as 40% and the “% Inhibitions of rat PCA” value (rat PCA; [2]) is reported as 18%.
